{"source": "patent US20250243171A1", "about": "“QUINAZOLINE COMPOUNDS FOR TREATMENT OF DISEASE” (Arthrosi Therapeutics, Inc., priority 2021, published 2025)", "test_in_all_cases": "EC50 assay: Ba/F3 stable cell proliferation (CCK-8, 72 h)", "format_in_all_cases": "cell-based", "key": {"Ba/F3 stable cells [1]": {"target": "T1, Ba/F3 stable cells (Homo sapiens, UniProt P00533, T790M/L858R, cells depend on it)", "T1 construct": "EC50 Ba/F3-EGFR L858R-T790M; other: Ba/F3-EGFR L858R-T790M cells, 72 h, CCK-8", "details": "Ba/F3-EGFR L858R-T790M cells", "how_it_was_run": "(§1)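 Ba/F3 stable cells were seeded at 4,000 cells/90 μL/well in 96-well plates and held 2 h at 37° C. in 5% CO2, then given 10 μL of serially titrated compound (0.1% DMSO final). After 72 h at 37° C., CCK-8 reagent was added for 4 hours and absorbance read at 450 nm to derive EC50.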"}, "Ba/F3 stable cells [2]": {"target": "T2, Ba/F3 stable cells (Homo sapiens, UniProt P00533, INS763FQEA, cells depend on it)", "T2 construct": "EC50 Ba/F3-EGFR A763-Y764insFQEA; other: Ba/F3-EGFR A763-Y764insFQEA cells, 72 h, CCK-8", "T2 sequence (P00533 with tags, fused parts or gaps INS763FQEA)": "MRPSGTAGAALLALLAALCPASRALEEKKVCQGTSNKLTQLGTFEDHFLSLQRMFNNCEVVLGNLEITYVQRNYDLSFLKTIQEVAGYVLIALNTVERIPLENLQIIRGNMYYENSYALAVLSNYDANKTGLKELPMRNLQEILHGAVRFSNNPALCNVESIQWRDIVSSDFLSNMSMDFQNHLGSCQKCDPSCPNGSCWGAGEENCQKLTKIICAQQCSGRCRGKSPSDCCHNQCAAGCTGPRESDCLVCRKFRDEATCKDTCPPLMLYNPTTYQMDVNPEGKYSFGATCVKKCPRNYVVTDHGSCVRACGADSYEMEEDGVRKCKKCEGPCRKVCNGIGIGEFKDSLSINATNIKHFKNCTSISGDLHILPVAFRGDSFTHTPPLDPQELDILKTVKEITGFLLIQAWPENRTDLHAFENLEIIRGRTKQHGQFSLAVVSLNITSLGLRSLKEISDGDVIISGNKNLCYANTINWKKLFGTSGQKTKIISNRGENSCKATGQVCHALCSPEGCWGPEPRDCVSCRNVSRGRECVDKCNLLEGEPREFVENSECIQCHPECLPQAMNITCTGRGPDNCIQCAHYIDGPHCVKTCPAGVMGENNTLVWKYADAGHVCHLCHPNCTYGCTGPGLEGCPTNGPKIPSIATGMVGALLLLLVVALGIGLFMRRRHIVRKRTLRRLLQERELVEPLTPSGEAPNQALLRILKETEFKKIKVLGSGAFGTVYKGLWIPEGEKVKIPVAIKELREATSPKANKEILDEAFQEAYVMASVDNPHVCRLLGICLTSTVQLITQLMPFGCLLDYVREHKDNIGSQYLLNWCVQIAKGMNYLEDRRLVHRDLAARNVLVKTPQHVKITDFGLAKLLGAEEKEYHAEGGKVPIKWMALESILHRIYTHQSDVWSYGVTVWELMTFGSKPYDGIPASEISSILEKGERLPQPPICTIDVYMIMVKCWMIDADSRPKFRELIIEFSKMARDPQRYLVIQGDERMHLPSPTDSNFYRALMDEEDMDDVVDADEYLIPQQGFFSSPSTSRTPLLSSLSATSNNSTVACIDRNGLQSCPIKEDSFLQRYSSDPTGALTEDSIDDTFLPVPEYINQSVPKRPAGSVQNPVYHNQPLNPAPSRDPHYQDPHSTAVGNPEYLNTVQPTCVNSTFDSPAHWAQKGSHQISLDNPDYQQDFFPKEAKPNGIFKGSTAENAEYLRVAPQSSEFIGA", "details": "Ba/F3-EGFR A763-Y764insFQEA cells", "how_it_was_run": "as §1"}, "Ba/F3 stable cells [3]": {"target": "T3, Ba/F3 stable cells (Homo sapiens, UniProt P04626, DUP772-775, cells depend on it)", "T3 construct": "EC50 Ba/F3-HER2 A775-G776insYVMA; other: Ba/F3-HER2 A775-G776insYVMA cells, 72 h, CCK-8", "T3 sequence (P04626 with tags, fused parts or gaps DUP772-775)": "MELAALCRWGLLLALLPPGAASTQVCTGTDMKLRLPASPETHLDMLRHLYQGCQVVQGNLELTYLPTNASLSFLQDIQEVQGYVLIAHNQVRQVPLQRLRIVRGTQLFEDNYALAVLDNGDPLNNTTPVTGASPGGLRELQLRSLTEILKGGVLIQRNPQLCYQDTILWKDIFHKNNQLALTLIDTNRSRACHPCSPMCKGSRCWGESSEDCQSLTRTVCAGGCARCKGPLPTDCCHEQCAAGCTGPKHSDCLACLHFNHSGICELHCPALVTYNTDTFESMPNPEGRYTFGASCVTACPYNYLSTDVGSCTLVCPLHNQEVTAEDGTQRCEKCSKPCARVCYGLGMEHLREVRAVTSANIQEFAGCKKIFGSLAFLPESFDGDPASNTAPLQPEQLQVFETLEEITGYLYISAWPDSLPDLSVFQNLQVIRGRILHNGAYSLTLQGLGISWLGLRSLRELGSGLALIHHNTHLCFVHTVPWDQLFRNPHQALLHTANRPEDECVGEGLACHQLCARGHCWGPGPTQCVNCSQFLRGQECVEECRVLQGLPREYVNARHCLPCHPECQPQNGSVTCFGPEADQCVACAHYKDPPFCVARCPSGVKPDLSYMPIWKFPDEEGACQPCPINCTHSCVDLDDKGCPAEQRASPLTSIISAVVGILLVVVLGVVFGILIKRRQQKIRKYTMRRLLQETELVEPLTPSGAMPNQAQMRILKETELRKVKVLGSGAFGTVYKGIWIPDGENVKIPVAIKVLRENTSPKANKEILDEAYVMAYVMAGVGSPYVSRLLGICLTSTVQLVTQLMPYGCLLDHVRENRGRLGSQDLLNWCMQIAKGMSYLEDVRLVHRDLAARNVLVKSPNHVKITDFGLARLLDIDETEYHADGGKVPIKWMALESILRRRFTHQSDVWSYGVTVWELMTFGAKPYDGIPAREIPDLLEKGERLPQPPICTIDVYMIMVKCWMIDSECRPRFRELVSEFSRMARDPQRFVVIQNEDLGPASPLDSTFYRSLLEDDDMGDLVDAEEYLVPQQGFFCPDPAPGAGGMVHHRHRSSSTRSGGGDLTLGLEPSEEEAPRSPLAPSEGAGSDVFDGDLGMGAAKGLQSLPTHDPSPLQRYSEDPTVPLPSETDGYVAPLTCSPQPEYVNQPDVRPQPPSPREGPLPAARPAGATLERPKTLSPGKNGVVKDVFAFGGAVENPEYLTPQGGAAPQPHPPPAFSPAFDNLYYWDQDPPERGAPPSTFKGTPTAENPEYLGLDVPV", "details": "Ba/F3-HER2 A775-G776insYVMA cells", "how_it_was_run": "as §1"}, "Ba/F3 stable cells [4]": {"target": "T4, Ba/F3 stable cells (Homo sapiens, UniProt P00533, DUP768-770, cells depend on it)", "T4 construct": "EC50 Ba/F3-EGFR D770-N771insSVD; other: Ba/F3-EGFR D770-N771insSVD cells, 72 h, CCK-8", "details": "Ba/F3-EGFR D770-N771insSVD cells", "how_it_was_run": "as §1"}, "Ba/F3 stable cells [5]": {"target": "T5, Ba/F3 stable cells (Homo sapiens, UniProt P00533, DUP771-773, cells depend on it)", "T5 construct": "EC50 Ba/F3-EGFR H773-V774insNPH; other: Ba/F3-EGFR H773-V774insNPH cells, 72 h, CCK-8", "T5 sequence (P00533 with tags, fused parts or gaps DUP771-773)": "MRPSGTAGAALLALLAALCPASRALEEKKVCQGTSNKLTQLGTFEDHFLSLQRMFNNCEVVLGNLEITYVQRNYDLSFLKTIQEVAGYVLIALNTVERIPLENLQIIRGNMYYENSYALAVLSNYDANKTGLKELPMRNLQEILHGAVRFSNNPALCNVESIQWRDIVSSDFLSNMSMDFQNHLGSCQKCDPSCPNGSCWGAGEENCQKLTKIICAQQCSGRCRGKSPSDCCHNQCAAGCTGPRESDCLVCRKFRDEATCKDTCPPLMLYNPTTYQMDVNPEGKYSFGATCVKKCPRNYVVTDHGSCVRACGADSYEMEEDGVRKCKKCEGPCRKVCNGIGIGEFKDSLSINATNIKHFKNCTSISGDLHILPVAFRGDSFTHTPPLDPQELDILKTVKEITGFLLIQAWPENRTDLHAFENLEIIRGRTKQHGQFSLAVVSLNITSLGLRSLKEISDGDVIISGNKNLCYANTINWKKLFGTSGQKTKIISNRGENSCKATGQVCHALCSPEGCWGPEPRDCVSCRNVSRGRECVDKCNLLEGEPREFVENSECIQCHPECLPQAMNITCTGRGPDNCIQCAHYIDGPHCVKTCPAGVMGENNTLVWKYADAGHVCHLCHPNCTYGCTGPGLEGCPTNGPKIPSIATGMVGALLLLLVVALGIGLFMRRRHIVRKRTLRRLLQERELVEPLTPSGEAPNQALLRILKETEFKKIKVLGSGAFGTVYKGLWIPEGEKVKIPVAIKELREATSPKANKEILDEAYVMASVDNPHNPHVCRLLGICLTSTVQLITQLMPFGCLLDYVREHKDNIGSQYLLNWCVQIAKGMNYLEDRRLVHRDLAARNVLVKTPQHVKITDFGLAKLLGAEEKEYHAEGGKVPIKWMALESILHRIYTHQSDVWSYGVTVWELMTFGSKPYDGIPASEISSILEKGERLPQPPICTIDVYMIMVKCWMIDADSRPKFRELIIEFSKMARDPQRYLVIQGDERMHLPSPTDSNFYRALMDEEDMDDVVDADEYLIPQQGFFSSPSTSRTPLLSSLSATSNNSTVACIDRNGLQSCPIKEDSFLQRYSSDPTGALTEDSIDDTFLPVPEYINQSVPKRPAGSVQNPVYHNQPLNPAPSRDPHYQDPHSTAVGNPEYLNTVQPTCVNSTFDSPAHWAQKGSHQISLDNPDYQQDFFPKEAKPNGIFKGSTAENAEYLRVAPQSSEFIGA", "details": "Ba/F3-EGFR H773-V774insNPH cells", "how_it_was_run": "as §1"}, "Ba/F3 stable cells [6]": {"target": "T6, Ba/F3 stable cells (Homo sapiens, UniProt P00533, DUP767-769, cells depend on it)", "T6 construct": "EC50 Ba/F3-EGFR V769-D770insASV; other: Ba/F3-EGFR V769-D770insASV cells, 72 h, CCK-8", "T6 sequence (P00533 with tags, fused parts or gaps DUP767-769)": "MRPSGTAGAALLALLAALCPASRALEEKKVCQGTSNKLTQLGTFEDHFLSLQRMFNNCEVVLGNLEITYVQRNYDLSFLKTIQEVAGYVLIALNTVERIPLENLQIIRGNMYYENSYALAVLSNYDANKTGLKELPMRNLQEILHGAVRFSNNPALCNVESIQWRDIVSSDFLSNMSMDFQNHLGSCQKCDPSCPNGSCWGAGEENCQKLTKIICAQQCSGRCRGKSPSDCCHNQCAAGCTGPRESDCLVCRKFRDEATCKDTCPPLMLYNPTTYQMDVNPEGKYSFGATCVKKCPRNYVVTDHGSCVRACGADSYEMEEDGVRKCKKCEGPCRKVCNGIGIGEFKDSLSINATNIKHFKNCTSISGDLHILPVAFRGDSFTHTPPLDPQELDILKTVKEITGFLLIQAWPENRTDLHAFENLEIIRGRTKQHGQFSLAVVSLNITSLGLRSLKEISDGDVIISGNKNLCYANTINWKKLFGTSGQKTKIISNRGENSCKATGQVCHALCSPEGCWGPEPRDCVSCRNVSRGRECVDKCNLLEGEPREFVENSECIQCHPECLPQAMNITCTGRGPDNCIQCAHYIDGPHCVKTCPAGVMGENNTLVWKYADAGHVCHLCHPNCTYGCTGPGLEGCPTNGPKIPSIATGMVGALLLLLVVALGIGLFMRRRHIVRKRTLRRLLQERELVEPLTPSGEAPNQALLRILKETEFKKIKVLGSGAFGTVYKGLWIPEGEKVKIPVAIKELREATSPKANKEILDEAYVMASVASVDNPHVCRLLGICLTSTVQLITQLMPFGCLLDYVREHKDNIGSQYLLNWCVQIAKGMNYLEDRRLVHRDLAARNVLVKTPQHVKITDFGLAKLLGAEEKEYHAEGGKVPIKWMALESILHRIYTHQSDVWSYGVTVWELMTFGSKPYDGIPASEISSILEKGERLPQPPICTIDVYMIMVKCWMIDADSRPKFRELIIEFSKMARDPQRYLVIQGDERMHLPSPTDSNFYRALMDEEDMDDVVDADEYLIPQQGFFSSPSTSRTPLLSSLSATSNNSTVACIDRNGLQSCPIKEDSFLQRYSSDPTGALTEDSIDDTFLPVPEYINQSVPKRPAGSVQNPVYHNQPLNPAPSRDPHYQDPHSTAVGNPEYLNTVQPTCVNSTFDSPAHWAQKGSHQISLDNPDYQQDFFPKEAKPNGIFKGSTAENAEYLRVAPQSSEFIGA", "details": "Ba/F3-EGFR V769-D770insASV cells", "how_it_was_run": "as §1"}}, "data": [{"molecule": "C#CC(=O)N1CCC=C(c2ccc3ncnc(Nc4ccc(Cl)c(Cl)c4F)c3c2)C1", "note": "[Compound 62, 1-(5-(4-((3,4-dichloro-2-fluorophenyl)amino)quinazolin-6-yl)-3,6-dihydropyridin-1(2H)-yl)prop-2-yn-1-one]", "values": [{"measurement": "EC50", "setting": "Ba/F3 stable cells [1]", "result": "0.2 to 1", "unit": "µM"}, {"measurement": "EC50", "setting": "Ba/F3 stable cells [2]", "result": "≤ 0.2", "unit": "µM"}, {"measurement": "EC50", "setting": "Ba/F3 stable cells [3]", "result": "0.2 to 1", "unit": "µM"}, {"measurement": "EC50", "setting": "Ba/F3 stable cells [4]", "result": "0.2 to 1", "unit": "µM"}, {"measurement": "EC50", "setting": "Ba/F3 stable cells [5]", "result": "0.2 to 1", "unit": "µM"}, {"measurement": "EC50", "setting": "Ba/F3 stable cells [6]", "result": "0.2 to 1", "unit": "µM"}]}, {"molecule": "C#CC(=O)N1CCC=C(c2cc3c(Nc4ccc(Cl)c(Cl)c4F)ncnc3cc2OC)C1", "note": "[Compound 63, 1-(5-(4-((3,4-dichloro-2-fluorophenyl)amino)-7-methoxyquinazolin-6-yl)-3,6-dihydropyridin-1(2H)-yl)prop-2-yn-1-one]", "values": [{"measurement": "EC50", "setting": "Ba/F3 stable cells [1]", "result": "≤ 0.2", "unit": "µM"}, {"measurement": "EC50", "setting": "Ba/F3 stable cells [2]", "result": "≤ 0.2", "unit": "µM"}, {"measurement": "EC50", "setting": "Ba/F3 stable cells [3]", "result": "0.2 to 1", "unit": "µM"}, {"measurement": "EC50", "setting": "Ba/F3 stable cells [4]", "result": "≤ 0.2", "unit": "µM"}, {"measurement": "EC50", "setting": "Ba/F3 stable cells [5]", "result": "≤ 0.2", "unit": "µM"}, {"measurement": "EC50", "setting": "Ba/F3 stable cells [6]", "result": "≤ 0.2", "unit": "µM"}]}, {"molecule": "C=CC(=O)N[C@H]1C[C@@H](Oc2cc3c(Nc4ccc(Cl)c(Cl)c4F)ncnc3cc2OC)C1", "note": "[Compound 66, N-((1s,3s)-3-((4-((3,4-dichloro-2-fluorophenyl)amino)-7-methoxyquinazolin-6-yl)oxy)cyclobutyl)acrylamide]", "values": [{"measurement": "EC50", "setting": "Ba/F3 stable cells [1]", "result": "≤ 0.2", "unit": "µM"}, {"measurement": "EC50", "setting": "Ba/F3 stable cells [2]", "result": "≤ 0.2", "unit": "µM"}, {"measurement": "EC50", "setting": "Ba/F3 stable cells [3]", "result": "≤ 0.2", "unit": "µM"}, {"measurement": "EC50", "setting": "Ba/F3 stable cells [4]", "result": "0.2 to 1", "unit": "µM"}, {"measurement": "EC50", "setting": "Ba/F3 stable cells [5]", "result": "≤ 0.2", "unit": "µM"}, {"measurement": "EC50", "setting": "Ba/F3 stable cells [6]", "result": "≤ 0.2", "unit": "µM"}]}, {"molecule": "C=CC(=O)NC1CC(Oc2cc3c(Nc4ccc(C)c5c4CCC5)ncnc3cc2OC)C1", "note": "(stereo not drawn) [Compound 67, N-(3-((7-methoxy-4-((7-methyl-2,3-dihydro-1H-inden-4-yl)amino)quinazolin-6-yl)oxy)cyclobutyl)acrylamide]", "values": [{"measurement": "EC50", "setting": "Ba/F3 stable cells [1]", "result": "> 1", "unit": "µM"}, {"measurement": "EC50", "setting": "Ba/F3 stable cells [2]", "result": "0.2 to 1", "unit": "µM"}, {"measurement": "EC50", "setting": "Ba/F3 stable cells [3]", "result": "> 1", "unit": "µM"}, {"measurement": "EC50", "setting": "Ba/F3 stable cells [4]", "result": "> 1", "unit": "µM"}, {"measurement": "EC50", "setting": "Ba/F3 stable cells [5]", "result": "> 1", "unit": "µM"}, {"measurement": "EC50", "setting": "Ba/F3 stable cells [6]", "result": "> 1", "unit": "µM"}]}, {"molecule": "C=CC(=O)NC1CC(Oc2cc3c(Nc4ccc(F)c5c4CCC5=O)ncnc3cc2OC)C1", "note": "(stereo not drawn) [Compound 68, N-(3-((4-((7-fluoro-1-oxo-2,3-dihydro-1H-inden-4-yl)amino)-7-methoxyquinazolin-6-yl)oxy)cyclobutyl)acrylamide]", "values": [{"measurement": "EC50", "setting": "Ba/F3 stable cells [1]", "result": "> 1", "unit": "µM"}, {"measurement": "EC50", "setting": "Ba/F3 stable cells [2]", "result": "> 1", "unit": "µM"}, {"measurement": "EC50", "setting": "Ba/F3 stable cells [3]", "result": "> 1", "unit": "µM"}, {"measurement": "EC50", "setting": "Ba/F3 stable cells [4]", "result": "> 1", "unit": "µM"}, {"measurement": "EC50", "setting": "Ba/F3 stable cells [5]", "result": "> 1", "unit": "µM"}, {"measurement": "EC50", "setting": "Ba/F3 stable cells [6]", "result": "> 1", "unit": "µM"}]}, {"molecule": "C=CC(=O)NC1CC(Oc2cc3c(Nc4ccc(F)c5c4CCC5O)ncnc3cc2OC)C1", "note": "(stereo not drawn) [Compound 69, N-(3-((4-((7-fluoro-1-hydroxy-2,3-dihydro-1H-inden-4-yl)amino)-7-methoxyquinazolin-6-yl)oxy)cyclobutyl)acrylamide]", "values": [{"measurement": "EC50", "setting": "Ba/F3 stable cells [1]", "result": "> 1", "unit": "µM"}, {"measurement": "EC50", "setting": "Ba/F3 stable cells [2]", "result": "> 1", "unit": "µM"}, {"measurement": "EC50", "setting": "Ba/F3 stable cells [3]", "result": "> 1", "unit": "µM"}, {"measurement": "EC50", "setting": "Ba/F3 stable cells [4]", "result": "> 1", "unit": "µM"}, {"measurement": "EC50", "setting": "Ba/F3 stable cells [5]", "result": "> 1", "unit": "µM"}, {"measurement": "EC50", "setting": "Ba/F3 stable cells [6]", "result": "> 1", "unit": "µM"}]}, {"molecule": "C=CC(=O)NC1CC(Oc2cc3c(Nc4ccc5c(c4)CCCC5=O)ncnc3cc2OC)C1", "note": "(stereo not drawn) [Compound 70, N-(3-((7-methoxy-4-((5-oxo-5,6,7,8-tetrahydronaphthalen-2-yl)amino)quinazolin-6-yl)oxy)cyclobutyl)acrylamide]", "values": [{"measurement": "EC50", "setting": "Ba/F3 stable cells [1]", "result": "> 1", "unit": "µM"}, {"measurement": "EC50", "setting": "Ba/F3 stable cells [2]", "result": "> 1", "unit": "µM"}, {"measurement": "EC50", "setting": "Ba/F3 stable cells [3]", "result": "> 1", "unit": "µM"}, {"measurement": "EC50", "setting": "Ba/F3 stable cells [4]", "result": "> 1", "unit": "µM"}, {"measurement": "EC50", "setting": "Ba/F3 stable cells [5]", "result": "> 1", "unit": "µM"}, {"measurement": "EC50", "setting": "Ba/F3 stable cells [6]", "result": "> 1", "unit": "µM"}]}, {"molecule": "C=CC(=O)NC1CC(Oc2cc3c(Nc4ccc5c(c4)CCCC5O)ncnc3cc2OC)C1", "note": "(stereo not drawn) [Compound 71, N-(3-((4-((5-hydroxy-5,6,7,8-tetrahydronaphthalen-2-yl)amino)-7-methoxyquinazolin-6-yl)oxy)cyclobutyl)acrylamide]", "values": [{"measurement": "EC50", "setting": "Ba/F3 stable cells [1]", "result": "> 1", "unit": "µM"}, {"measurement": "EC50", "setting": "Ba/F3 stable cells [2]", "result": "> 1", "unit": "µM"}, {"measurement": "EC50", "setting": "Ba/F3 stable cells [3]", "result": "> 1", "unit": "µM"}, {"measurement": "EC50", "setting": "Ba/F3 stable cells [4]", "result": "> 1", "unit": "µM"}, {"measurement": "EC50", "setting": "Ba/F3 stable cells [5]", "result": "> 1", "unit": "µM"}, {"measurement": "EC50", "setting": "Ba/F3 stable cells [6]", "result": "> 1", "unit": "µM"}]}, {"molecule": "C=CC(=O)N(C)C1CC(Oc2cc3c(Nc4ccc(Cl)c(Cl)c4F)ncnc3cc2OC)C1", "note": "(stereo not drawn) [Compound 72, N-(3-((4-((3,4-dichloro-2-fluorophenyl)amino)-7-methoxyquinazolin-6-yl)oxy)cyclobutyl)-N-methylacrylamide]", "values": [{"measurement": "EC50", "setting": "Ba/F3 stable cells [1]", "result": "0.2 to 1", "unit": "µM"}, {"measurement": "EC50", "setting": "Ba/F3 stable cells [2]", "result": "≤ 0.2", "unit": "µM"}, {"measurement": "EC50", "setting": "Ba/F3 stable cells [3]", "result": "0.2 to 1", "unit": "µM"}, {"measurement": "EC50", "setting": "Ba/F3 stable cells [4]", "result": "≤ 0.2", "unit": "µM"}, {"measurement": "EC50", "setting": "Ba/F3 stable cells [5]", "result": "≤ 0.2", "unit": "µM"}, {"measurement": "EC50", "setting": "Ba/F3 stable cells [6]", "result": "≤ 0.2", "unit": "µM"}]}]}
